“And” between values parts separate entries of the source, which are not always exact repeats. Equal values may be shown once. Where a name gives a salt, the structure may show the parent alone. Read-outs that look alike come from different tables or passages of the source.

The assay has as its target T1, human CTPS1 (Homo sapiens, UniProt P17812).
T1 construct: purchased Proteros biostructures GmbH
T1 sequence (P17812 1-591): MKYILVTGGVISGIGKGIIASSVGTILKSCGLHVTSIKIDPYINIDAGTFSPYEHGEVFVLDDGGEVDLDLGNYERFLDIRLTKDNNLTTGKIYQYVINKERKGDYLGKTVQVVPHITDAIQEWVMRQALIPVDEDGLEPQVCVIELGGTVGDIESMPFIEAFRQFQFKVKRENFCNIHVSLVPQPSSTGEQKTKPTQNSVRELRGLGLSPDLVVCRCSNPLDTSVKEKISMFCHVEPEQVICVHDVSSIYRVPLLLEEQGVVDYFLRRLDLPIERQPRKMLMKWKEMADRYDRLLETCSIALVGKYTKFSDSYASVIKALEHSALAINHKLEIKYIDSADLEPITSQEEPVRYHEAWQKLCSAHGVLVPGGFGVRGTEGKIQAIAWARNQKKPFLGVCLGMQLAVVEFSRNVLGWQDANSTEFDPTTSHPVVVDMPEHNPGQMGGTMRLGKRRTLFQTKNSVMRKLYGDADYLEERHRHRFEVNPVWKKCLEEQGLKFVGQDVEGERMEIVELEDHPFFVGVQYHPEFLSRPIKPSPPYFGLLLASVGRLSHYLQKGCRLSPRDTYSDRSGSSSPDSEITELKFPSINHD
In words: Human CTPS1 enzyme inhibition (ADP-Glo Max assay). Format: biochemical. The settings on record: read-out: CTPS1 (Human CTPS1 Enzyme Inhibition data grouped by potency range). The procedure:
The enzyme inhibitory activities of compounds invented against the target of interest were determined using the ADP-Glo™ Max assay (Promega, UK). Assays for human CTPS1 were performed in 1× assay buffer containing 50 mM Tris, 10 mM MgCl2, 0.01% Tween-20, pH to 8.0 accordingly. Finally, immediately before use, L-cysteine was added to the 1× assay buffer to a final concentration of 2 mM. All reagents are from Sigma-Aldrich unless specified otherwise.
3× human CTPS1 protein was prepared in 1× assay buffer to the final working protein concentration required for the reaction. A 2 uL volume per well of 3× human CTPS1 protein was mixed with 2 uL per well of 3× test compound (compound prepared in 1× assay buffer to an appropriate final 3× compound concentration respective to the concentration response curve designed for the compounds under test) for 10 minutes at 25° C. […] ADP-Glo™ Max reagent was added for 60 minutes (6 uL per well) and subsequently ADP-Glo™ Max development reagent was added for 60 minutes (12 uL per well) prior to signal detection in a microplate reader (EnVision® Multilabel Reader, Perkin Elmer). Following each reagent addition over the course of the assay, assay plates were pulse centrifuged for 30 seconds at 500 rpm.
In all cases, the enzyme converts ATP to ADP and the ADP-Glo™ Max reagent subsequently depletes any remaining endogenous ATP in the reaction system. The ADP-Glo™ Max detection reagent converts the ADP that has been enzymatically produced back into ATP and using ATP as a substrate together with luciferin for the enzyme luciferase, light is generated which produces a detectable luminescence. […] The percentage inhibition produced by each concentration of compound was calculated using the equation shown below: […]

Setting [1] is: Table 18, additional potency data, 25° C.

Take `CCC(C(=O)N(C)c1ccc(-c2cncc(C#N)c2)cc1)c1csc(NS(=O)(=O)C2CC2)n1` (centres unmarked) [T316]: for the setting “Table 17, 25° C.”, the IC50 fell in the range of 100 to 1000 nM.

Turning to `COc1cncc(-c2ccc(N3CCC(c4csc(NS(=O)(=O)C5CC5)n4)C3=O)cc2)c1` (centres unmarked) [T463], the IC50 under setting [1] was 100 to 1000 nM.

As for `CCC(C(=O)Nc1ccc(-c2ccnnc2)cc1)c1csc(NS(=O)(=O)C2CC2)n1` (centres unmarked) [T69], the IC50 (Table 17, 25° C.) was 1000 to 10000 nM.

For `CCOc1cncc(-c2ccc(NC(=O)C(OC)c3csc(NS(=O)(=O)C4CC4)n3)c(C(F)(F)F)c2)n1` (centres unmarked) [T449], the IC50 under setting [1] is < 100 nM.

Regarding `CCOc1cncc(-c2ccc(NC(=O)C(N)c3csc(NS(=O)(=O)C4CC4)n3)c(F)c2)n1` (centres unmarked) [T419, 2-Amino-2-(2-(cyclopropanesulfonamido)thiazol-4-yl)-N-(4-(6-ethoxypyrazin-2-yl)-2-fluorophenyl)acetamide hydrochloride], the IC50 under setting [1] was < 100 nM.

On to `CCOc1cncc(-c2ccc(NC(=O)C(C)(C)c3nc(NS(=O)(=O)C4CC4)sc3OC)cc2)n1` [T377, 2-(2-(cyclopropanesulfonamido)-5-methoxythiazol-4-yl)-N-(4-(6-ethoxypyrazin-2-yl)phenyl)-2-methylpropanamide], for which the IC50 under setting [1] is 100 to 1000 nM.

As for `Cc1c(NC(=O)C(C)(C)c2csc(NS(=O)(=O)C3CC3)n2)ccc(-c2cncc(C#N)c2)c1F` [T367, N-(4-(5-cyanopyridin-3-yl)-3-fluoro-2-methylphenyl)-2-(2-(cyclopropanesulfonamido)thiazol-4-yl)-2-methylpropanamide], the IC50 under setting [1] is < 100 nM.

For `CCC(C(=O)Nc1ccc(-c2cncc(OC(F)F)c2)cc1F)c1csc(NS(=O)(=O)C2CC2)n1` (centres unmarked) [T209], the IC50 (Table 17, 25° C.) was < 100 nM.

Take `Cc1c(NC(=O)C(C)(C)c2csc(NS(=O)(=O)C3CC3)n2)ccc(-c2cncc(Cl)c2)c1F` [T363, N-(4-(5-chloropyridin-3-yl)-3-fluoro-2-methylphenyl)-2-(2-(cyclopropanesulfonamido)thiazol-4-yl)-2-methylpropanamide]: under setting [1], the IC50 is < 100 nM.

Consider `CCC(C(=O)Nc1ccc(-c2ccccc2)cn1)c1csc(NS(=O)(=O)C2CC2)n1` (centres unmarked) [T181], for which the IC50 (Table 17, 25° C.) fell in the range of 100 to 1000 nM.

For the compound `CCC(C(=O)Nc1ccc(-c2cncc(OCC(F)(F)F)n2)cn1)c1csc(NS(=O)(=O)C2CC2)n1` (centres unmarked) [T182], the IC50 (Table 17, 25° C.) is < 100 nM.

With `CC(C)C(C(=O)Nc1ccc(-c2cccnc2)cc1)c1csc(NS(=O)(=O)C2CC2)n1` (single isomer, unassigned) [T13, 2-(2-(cyclopropanesulfonamido)thiazol-4-yl)-3-methyl-N-(4-(pyridin-3-yl)phenyl)butanamide.HCl], for the setting “Table 17, 25° C.”, the IC50 fell in the range of 100 to 1000 nM.

In the case of `CCC(CC)(C(=O)Nc1ccc(-c2cncc(Cl)c2)cc1)c1csc(NS(=O)(=O)C2CC2)n1` [T120], under “Table 17, 25° C.”, the IC50 was < 100 nM.

`CCC(C(=O)Nc1ccc(-c2cncc(C#N)c2)cc1F)c1csc(NS(=O)(=O)C2CC2)n1` (centres unmarked) [T202]: the IC50 (Table 17, 25° C.) is < 100 nM.

For the compound `CCOc1cncc(-c2ccc(NC(=O)C(C)(C)c3csc(NS(=O)(=O)C4CC4)n3)nc2)n1` [T341, 2-(2-(cyclopropanesulfonamido)thiazol-4-yl)-N-(5-(6-ethoxypyrazin-2-yl)pyridin-2-yl)-2-methylpropanamide], the IC50 under setting [1] was < 100 nM.

Turning to `CCOc1cncc(-c2ccc(NC(=O)C(C)c3csc(NS(=O)(=O)C4CC4)n3)cc2)n1` (centres unmarked) [T192], the IC50 (Table 17, 25° C.) is < 100 nM.

Take `CC(C)(C(=O)Nc1ccc(-c2cncc(C#N)n2)cc1F)c1csc(NS(=O)(=O)C2CC2)n1` [T355, N-(4-(6-cyanopyrazin-2-yl)-2-fluorophenyl)-2-(2-(cyclopropanesulfonamido)thiazol-4-yl)-2-methylpropanamide]: the IC50 under setting [1] was in the range of 1000 to 10000 nM.

For the compound `CCOc1cncc(-c2ccc(NC(=O)C(OC)c3csc(NS(=O)(=O)C4CC4)n3)c(Cl)c2)n1` (centres unmarked) [T450], the IC50 under setting [1] was < 100 nM.

`Cc1cc(-c2cncc(Cl)c2)c(C)cc1NC(=O)C(C)(C)c1csc(NS(=O)(=O)C2CC2)n1` [T366, N-(4-(5-chloropyridin-3-yl)-2,5-dimethylphenyl)-2-(2-(cyclopropanesulfonamido)thiazol-4-yl)-2-methylpropanamide]: the IC50 under setting [1] fell in the range of 100 to 1000 nM.

For the compound `CCOc1cncc(-c2ccc(NC(=O)C(CCOC)c3csc(NS(=O)(=O)C4CC4)n3)nc2)n1` (centres unmarked) [T436], the IC50 under setting [1] was < 100 nM.

Consider `CCOc1cncc(-c2ccc(NC(=O)C(C)(C)c3csc(NS(=O)(=O)C4CC4)n3)c(C(F)(F)F)c2)n1` [T347, 2-(2-(cyclopropanesulfonamido)thiazol-4-yl)-N-(4-(6-ethoxypyrazin-2-yl)-2-(trifluoromethyl)phenyl)-2-methylpropanamide], for which the IC50 under setting [1] was < 100 nM.

On to `CC(C)C(C(=O)Nc1ccc(-c2ccccc2)cc1)c1csc(NS(=O)(=O)C2CC2)n1` (centres unmarked) [T86], for which the IC50 (Table 17, 25° C.) lay within 1000 to 10000 nM.

For `CCc1cncc(-c2ccc(NC(=O)C(CC)c3csc(NS(=O)(=O)C4CC4)n3)c(F)c2)n1` (centres unmarked) [T405, 2-(2-(cyclopropanesulfonamido)thiazol-4-yl)-N-(4-(6-ethylpyrazin-2-yl)-2-fluorophenyl)butanamide], under setting [1], the IC50 was < 100 nM.

As to `CCC(C(=O)Nc1ccc(-c2cccnc2)cc1Cl)c1csc(NS(=O)(=O)C2CC2)n1` (centres unmarked) [T221], the IC50 (Table 17, 25° C.) is < 100 nM.

On to `CCC(C(=O)Nc1ccc(-c2cncc(OC(C)C)n2)cc1)c1csc(NS(=O)(=O)C2CC2)n1` (centres unmarked) [T76], for which, where the note is “Table 17, 25° C.”, the IC50 was < 100 nM.

As for `CCC(C(=O)Nc1ccc(-c2cncc(OC)n2)cc1)c1csc(NS(=O)(=O)C2CC2)n1` (centres unmarked) [T33], the IC50 (Table 17, 25° C.) is < 100 nM.

For the compound `CCOc1cncc(-c2ccc(NC(=O)C(OC)c3csc(NS(=O)(=O)C4CC4)n3)c(C#N)c2)n1` (centres unmarked) [T451], the IC50 under setting [1] is < 100 nM.

Consider `CCC(C(=O)Nc1ccc(-c2cncc(OCC(F)(F)F)c2)cc1)c1csc(NS(=O)(=O)C2CC2)n1` (centres unmarked) [T211], for which the IC50 (Table 17, 25° C.) was < 100 nM and 100 to 1000 nM.

Consider `CCOc1cncc(-c2ccc(NC(=O)C(CC)c3csc(NS(=O)(=O)C4CC4)n3)c(OC)c2)n1` (centres unmarked) [T443], for which, under setting [1], the IC50 is < 100 nM.

`CCC(C(=O)Nc1ccc(-c2cncc(OC(F)F)c2)cc1)c1csc(NS(=O)(=O)C2CC2)n1` (centres unmarked) [T210]: the IC50 (Table 17, 25° C.) was < 100 nM.

On to `Cc1ncc(-c2ccc(NC(=O)C(C)(C)c3csc(NS(=O)(=O)C4CC4)n3)cc2)nc1Cl` [T277], for which the IC50 (Table 17, 25° C.) fell in the range of 100 to 1000 nM.

In the case of `O=C(Cc1nc(NS(=O)(=O)C2CC2)sc1Cl)Nc1ccc(-c2ccccc2)cc1` [T21, N-([1,1′-biphenyl]-4-yl)-2-(5-chloro-2-(cyclopropanesulfonamido)thiazol-4-yl)acetamide], the IC50 (Table 17, 25° C.) fell in the range of 1000 to 10000 nM.

On to `CCOc1cncc(-c2ccc(NC(=O)C(OC)c3csc(NS(C)(=O)=O)n3)cc2)n1` (centres unmarked) [T455], for which, under setting [1], the IC50 was < 100 nM.

In the case of `CCOc1cncc(-c2ccc(NC(=O)C3(c4csc(NS(=O)(=O)C5CC5)n4)CC3)cc2)n1` [T398, 1-(2-(cyclopropanesulfonamido)thiazol-4-yl)-N-(4-(6-ethoxypyrazin-2-yl)phenyl)cyclopropane-1-carboxamide], the IC50 under setting [1] was < 100 nM.

For the compound `CC(C)c1cc(-c2cncc(C(F)(F)F)n2)ccc1NC(=O)C(C)(C)c1csc(NS(=O)(=O)C2CC2)n1` [T361, 2-(2-(cyclopropanesulfonamido)thiazol-4-yl)-N-(2-isopropyl-4-(6-(trifluoromethyl)pyrazin-2-yl)phenyl)-2-methylpropanamide], the IC50 under setting [1] is 100 to 1000 nM.

In the case of `Cc1cc(-c2cncc(C(F)(F)F)n2)ccc1NC(=O)C(C)(C)c1csc(NS(=O)(=O)C2CC2)n1` [T368, 2-(2-(cyclopropanesulfonamido)thiazol-4-yl)-2-methyl-N-(2-methyl-4-(6-(trifluoromethyl)pyrazin-2-yl)phenyl)propanamide], the IC50 under setting [1] was < 100 nM.

Regarding `CC(C)(O)c1cncc(-c2ccc(NC(=O)C(C)(C)c3csc(NS(=O)(=O)C4CC4)n3)nc2)n1` [T338, 2-(2-(cyclopropanesulfonamido)thiazol-4-yl)-N-(5-(6-(2-hydroxypropan-2-yl)pyrazin-2-yl)pyridin-2-yl)-2-methylpropanamide], the IC50 under setting [1] fell in the range of 1000 to 10000 nM.

In the case of `CCC(C(=O)Nc1ccc(-c2cncc(C(F)(F)F)c2)cc1)c1csc(NS(=O)(=O)C2CC2)n1` (centres unmarked) [T193], under “Table 17, 25° C.”, the IC50 is < 100 nM.

The values above are taken from patent US11655246B2, “Aminothiazole compounds as inhibitors of CTPS1” (STEP PHARMA S.A.S., priority 2017, dated 2023).
